Reference: PMC3206814, “Stereo-Selectivity of Human Serum Albumin to Enantiomeric and Isoelectronic Pollutants Dissected by Spectroscopy, Calorimetry and Bioinformatics” (PLoS ONE, 2011)

Tests used:
[1] = target: T1, human serum albumin (HSA) (Homo sapiens, UniProt P02768); experiment: UV absorption titration at […] nm, […]/dA vs […]/[S] plot; type: binding
T1 construct: gene ALB; commercial, essentially fatty acid free, full-length mature monomer of 585 residues, dialyzed, used without further purification

[2] = target: T1, human serum albumin (HSA); experiment: isothermal titration calorimetry, two-site sequential model; type: binding; settings: read-out: Kb(M^-1) (converted)
Source text: isothermal titration calorimetry, two-site sequential model on human serum albumin (HSA)

T1 sequence (P02768 25-609): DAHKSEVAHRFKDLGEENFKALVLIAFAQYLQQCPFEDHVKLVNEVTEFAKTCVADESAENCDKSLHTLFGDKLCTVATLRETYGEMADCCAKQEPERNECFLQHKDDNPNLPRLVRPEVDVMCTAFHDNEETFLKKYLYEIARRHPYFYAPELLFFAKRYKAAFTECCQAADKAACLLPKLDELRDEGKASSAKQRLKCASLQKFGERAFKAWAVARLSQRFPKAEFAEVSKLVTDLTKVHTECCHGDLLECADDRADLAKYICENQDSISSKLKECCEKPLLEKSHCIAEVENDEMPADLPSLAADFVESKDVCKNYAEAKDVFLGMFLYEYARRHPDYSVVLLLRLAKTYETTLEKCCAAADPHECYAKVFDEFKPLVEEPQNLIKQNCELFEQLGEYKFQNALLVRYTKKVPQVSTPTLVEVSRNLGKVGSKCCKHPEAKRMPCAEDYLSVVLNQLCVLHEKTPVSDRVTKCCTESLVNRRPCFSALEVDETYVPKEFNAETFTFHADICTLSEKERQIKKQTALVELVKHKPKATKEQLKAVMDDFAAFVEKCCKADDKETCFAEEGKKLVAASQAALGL

Kd [1]: 66.9 µM
Kd [2]: 25.3 µM
Structure (SMILES): Oc1ccc2ccccc2c1 [2N, naphthalen–2–ol]
